The record followed here is patent US20070185149A1, “Novel amido-substituted hydroxy-6-phenylphenanthridines and their use as pde4 inhibtors” (ALTANA PHARMA AG, priority 2004, published 2007).

Molecules are shown by their SMILES.

The target of this experiment is T1, PDE4B2 (Homo sapiens, UniProt Q07343).
T1 construct: made in house; host or cells: SF21 insect cells (baculovirus; virus prepared in SF9 cells)
T1 sequence (Q07343 1-564 isoform Q07343-2): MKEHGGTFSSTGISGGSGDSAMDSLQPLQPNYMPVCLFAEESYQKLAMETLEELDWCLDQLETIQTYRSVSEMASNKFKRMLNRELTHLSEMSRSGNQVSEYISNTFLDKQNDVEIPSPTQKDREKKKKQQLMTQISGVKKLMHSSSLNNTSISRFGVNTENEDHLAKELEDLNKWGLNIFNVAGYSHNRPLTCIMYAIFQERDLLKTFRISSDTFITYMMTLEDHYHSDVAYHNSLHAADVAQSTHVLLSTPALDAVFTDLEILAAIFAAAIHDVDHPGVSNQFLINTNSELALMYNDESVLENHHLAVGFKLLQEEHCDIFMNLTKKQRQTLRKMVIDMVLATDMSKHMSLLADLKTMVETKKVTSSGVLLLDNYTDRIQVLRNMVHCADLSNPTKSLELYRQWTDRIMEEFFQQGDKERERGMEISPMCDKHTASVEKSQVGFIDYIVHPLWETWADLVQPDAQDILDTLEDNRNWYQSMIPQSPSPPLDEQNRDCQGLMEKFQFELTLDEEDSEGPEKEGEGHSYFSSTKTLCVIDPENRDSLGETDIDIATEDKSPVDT
Description: Inhibition of PDE4 activity: PDE4B2 [3H]cAMP SPA enzyme assay. It is filed as biochemical. To be noted: recombinant PDE4B2 (SF21 cell supernatant), modified SPA test, 0.5 μM cAMP, 15 min at 37° C.; read-out: Inhibition of the PDE4 activity, −log IC50 (converted). As to the method: The PDE4B2 (GB no. M97515) was a gift of Prof. M. Conti (Stanford University, USA). It was amplified from the original plasmid (pCMV5) via PCR with primers Rb9 (5′-[…]-3′) and Rb10 (5′-[…]-3′) and cloned into the pCR-Bac vector (Invitrogen, Groningen, NL).
The recombinant baculovirus was prepared by means of homologous recombination in SF9 insect cells.
The expression plasmid was cotransfected with Bac-N-Blue (Invitrogen, Groningen, NL) or Baculo-Gold DNA (Pharmingen, Hamburg) using a standard protocol (Pharmingen, Hamburg). Wt virus-free recombinant virus supernatant was selected using plaque assay methods. After that, high-titre virus supernatant was prepared by amplifying 3 times. PDE was expressed in SF21 cells by infecting 2×10^6 cells/ml with an MOI (multiplicity of infection) between 1 and 10 in serum-free SF900 medium (Life Technologies, Paisley, UK). The cells were cultured at 28° C. for 48-72 hours, after which they were pelleted for 5-10 min at 1000 g and 4° C.
The SF21 insect cells were resuspended, at a concentration of approx. 10^7 cells/ml, in ice-cold (4° C.) homogenization buffer (20 mM Tris, pH 8.2, containing the following additions: 140 mM NaCl, 3.8 mM KCl, 1 mM EGTA, 1 mM MgCl2, 10 mM β-mercaptoethanol, 2 mM benzamidine, 0.4 mM Pefablock, 10 μM leupeptin, 10 μM pepstatin A, 5 μM trypsin inhibitor) and disrupted by ultrasonication. The homogenate was then centrifuged for 10 min at 1000×g and the supernatant was stored at −80° C. until subsequent use (see below). The protein content was determined by the Bradford method (BioRad, Munich) using BSA as the standard.
PDE4B2 activity is inhibited by the said compounds in a modified SPA (scintillation proximity assay) test, supplied by Amersham Biosciences (see procedural instructions “phosphodiesterase [3H]cAMP SPA enzyme assay, code TRKQ 7090”), carried out in 96-well microtitre plates (MTP's). The test volume is 100 μl and contains 20 mM Tris buffer (pH 7.4), 0.1 mg of BSA (bovine serum albumin)/ml, 5 mM Mg^2+, 0.5 μM cAMP (including about 50,000 cpm of [3H]cAMP), 1 μl of the respective substance dilution in DMSO and sufficient recombinant PDE (1000×g supernatant, see above) to ensure that 10-20% of the cAMP is converted under the said experimental conditions. […] After a preincubation of 5 min at 37° C., the reaction is started by adding the substrate (cAMP) and the assay is incubated for a further 15 min; after that, it is stopped by adding SPA beads (50 μl). In accordance with the manufacturer's instructions, the SPA beads had previously been resuspended in water, but were then diluted 1:3 (v/v) in water; the diluted solution also contains 3 mM IBMX to ensure a complete PDE activity stop. After the beads have been sedimented (>30 min), the MTP's are analyzed in commercially available […]. The corresponding IC50 values of the compounds for the inhibition of PDE activity are determined from the concentration-effect curves by means of non-linear regression.
On to `COc1ccc(NC(=O)c2ccc(C3=N[C@@H]4CC[C@@H](O)C[C@@H]4c4cc(OC)c(OC)cc43)cc2)c(OC)n1` (racemic) [Compound 23, N-(2,6-Dimethoxy-pyridin-3-yl)-4-((2RS,4aRS,10bRS)-2-hydroxy-8,9-dimethoxy-1,2,3,4,4a,10b-hexahydro-phenanthridin-6-yl)benzamide], for which the IC50 (usually the concentration needed to halve the response being measured) was 0.955 to 8.71 nM. The value for `COc1cc2c(cc1OC(F)F)C1CC(O)CCC1N=C2c1ccc(C(=O)N2CCN(CC(=O)N(C)C)CC2)cc1` (stereo not drawn) [Compound 34, 2-[4-(1-{4-[(2RS,4aRS,10bRS)-9-(1,1-Difluoro-methoxy)-2-hydroxy-8-methoxy-1,2,3,4,4a,10bhexahydro-phenanthridin-6-yl]-phenyl}-methanoyl)-piperazin-1-yl]-N,N-dimethyl-acetamide] was 0.955 to 8.71 nM; that for `COc1cc2c(cc1OC)C1CC(O)CCC1N=C2c1ccc(C(=O)N2CCN(c3ccccn3)CC2)cc1` (stereo not shown) [Compound 8] was 0.955 to 8.71 nM; that for `COc1cc2c(cc1OC)[C@H]1C[C@H](O)CC[C@H]1N=C2c1ccc(C(=O)N2CCN(CC(=O)Nc3cccnc3)CC2)cc1` (racemic) [Compound 13, 2-(4-{1-[4-((2RS,4aRS,10bRS)-2-Hydroxy-8,9-dimethoxy-1,2,3,4,4a,10b-hexahydro-phenanthridin-6-yl)phenyl]methanoyl}-piperazin-1-yl)-N-pyridin-3-yl-acetamide] was 0.955 to 8.71 nM.

With `COc1cc2c(cc1OC)C1CC(O)CCC1N=C2c1ccc(C(=O)NN2CCOCC2)cc1` (stereo not shown) [Compound 4], the IC50 is 0.955 to 8.71 nM.

Take `COc1cc2c(cc1OC)[C@H]1C[C@H](O)CC[C@H]1N=C2c1ccc(C(=O)NCCc2ccccn2)cc1` (racemic) [Compound 7, 4-((2RS,4aRS,10bRS)-2-Hydroxy-8,9-dimethoxy-1,2,3,4,4a,10b-hexahydro-phenanthridin-6-yl)-N-(2-pyridin-2-yl-ethyl)-benzamide]: the IC50 was 0.955 to 8.71 nM. For `COc1cc2c(cc1OC)[C@H]1C[C@H](O)CC[C@H]1N=C2c1ccc(C(=O)N2CCOCC2)cc1` (racemic) [Compound 19, 1-[4-((2RS,4aRS,10bRS)-2-Hydroxy-8,9-dimethoxy-1,2,3,4,4a,10b-hexahydro-phenanthridin-6-yl)-phenyl]-1-morpholin-4-yl-methanone] the value was 0.955 to 8.71 nM; for `COc1cc2c(cc1OC)[C@H]1C[C@H](O)CC[C@H]1N=C2c1ccc(C(=O)N2CCN(CCN3CCOCC3)CC2)cc1` (racemic) [Compound 9, 1-[4-((2RS,4aRS,10bRS)-2-Hydroxy-8,9-dimethoxy-1,2,3,4,4a,10b-hexahydro-phenanthridin-6-yl)-phenyl]-1-[4-(2-morpholin-4-yl-ethyl)-piperazin-1-yl]methanone], 0.955 to 8.71 nM.

With `COc1cc2c(cc1OC)[C@H]1C[C@H](O)CC[C@H]1N=C2c1ccc(C(=O)NCCc2ccncc2)cc1` (racemic) [Compound 20, 4-((2RS,4aRS,10bRS)-2-Hydroxy-8,9-dimethoxy-1,2,3,4,4a,10b-hexahydro-phenanthridin-6-yl)-N-(2-pyridin-4-yl-ethyl)-benzamide], the IC50 was 0.955 to 8.71 nM. The value for `COc1cc2c(cc1OC)[C@H]1C[C@H](O)CC[C@H]1N=C2c1ccc(C(=O)NN2CCN(C)CC2)cc1` (racemic) [Compound 3, 4-((2RS,4aRS,10bRS)-2-Hydroxy-8,9-dimethoxy-1,2,3,4,4a,10b-hexahydro-phenanthridin-6-yl)-N-(4-methyl-piperazin-1-yl)benzamide] was 0.955 to 8.71 nM; that for `COc1cc2c(cc1OC)[C@H]1C[C@H](O)CC[C@H]1N=C2c1ccc(C(=O)N(C)C)cc1` (racemic) [Compound 14, 4-((2RS,4aRS,10bRS)-2-Hydroxy-8,9-dimethoxy-1,2,3,4,4a,10b-hexahydro-phenanthridin-6-yl)-N,N-dimethyl-benzamide] was 0.955 to 8.71 nM. Turning to `COc1cc2c(cc1OC)[C@H]1C[C@H](O)CC[C@H]1N=C2c1ccc(C(=O)N2CCN(CC(=O)Nc3ccccn3)CC2)cc1` (racemic) [Compound 15, 2-(4-{1-[4-((2RS,4aRS,10bRS)-2-Hydroxy-8,9-dimethoxy-1,2,3,4,4a,10b-hexahydro-phenanthridin-6-yl)-phenyl]-methanoyl}-piperazin-1-yl)-N-pyridin-2-yl-acetamide], the IC50 is 0.955 to 8.71 nM. For `COc1cc2c(cc1OC(F)F)[C@H]1C[C@H](O)CC[C@H]1N=C2c1ccc(C(=O)NCCCN2CCOCC2)cc1` (racemic) [Compound 28, 4-[(2RS,4aRS,10bRS)-9-(1,1-Difluoro-methoxy)-2-hydroxy-8-methoxy-1,2,3,4,4a,10b-hexahydro-phenanthridin-6-yl]-N-(3-morpholin-4-yl-propyl)-benzamide] the value was 0.955 to 8.71 nM.
